Drawing on US12252524B2, “GIP/GLP1 co-agonist compounds” (Eli Lilly and Company, priority 2018, dated 2025), this text covers Ki and EC50 for five molecules.

Experiment [1] addresses human GLP-1R (Homo sapiens, UniProt P43220). The experiment in a line: [125I]-GLP-1 binding (SPA), human GLP-1 receptor. Also on record: expressed in transfected cells; crude membranes. The conditions noted are these: read-out: hGLP1R Ki, (nM) (SEM, n). In outline: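 Assay buffer: HEPES 25 mM, pH 7.4, CaCl2 2.5 mM, MgCl2 1 mM, with EDTA-free protease inhibitors. Receptor came from crude cell membranes prepared by homogenization and centrifugation at 4° C. IC50s came from four-parameter fits (maximum, minimum, IC50, Hill slope) and were expressed as Ki geometric means with SEM.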

Experiment [2] concerns the target human GLP-1 receptor (GLP-1R) (Homo sapiens, UniProt P43220). In words: cAMP pharmacological functional assay in presence of casein, hGLP-1R. It counts as cell-based. The conditions noted are these: HEK293 cells expressing hGLP-1R, 0.1% Casein, geometric mean; read-out: hGLP1R cAMP Rel EC50 nM (SEM, n).
Experiment [3] deals with T1, human GIP receptor (Homo sapiens, UniProt P48546).
T1 construct: expressed in transfected cells; crude membranes
T1 sequence (P48546 22-466): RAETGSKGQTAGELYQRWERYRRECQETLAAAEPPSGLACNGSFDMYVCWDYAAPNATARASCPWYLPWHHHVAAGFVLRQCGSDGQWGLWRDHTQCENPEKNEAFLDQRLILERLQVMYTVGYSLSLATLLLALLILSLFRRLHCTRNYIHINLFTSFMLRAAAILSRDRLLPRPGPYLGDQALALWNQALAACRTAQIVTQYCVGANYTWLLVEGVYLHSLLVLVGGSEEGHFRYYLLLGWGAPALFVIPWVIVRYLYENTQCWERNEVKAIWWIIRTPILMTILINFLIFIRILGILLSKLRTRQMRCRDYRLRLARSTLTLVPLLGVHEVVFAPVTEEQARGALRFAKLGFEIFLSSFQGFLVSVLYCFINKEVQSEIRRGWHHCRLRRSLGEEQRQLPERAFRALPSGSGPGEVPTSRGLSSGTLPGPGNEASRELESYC
In words: [125I]-GIP binding (SPA), human GIP receptor. Particulars: read-out: hGIPR Ki, nM (SEM, n).

Experiment [4] concerns the target T2, human Gcg receptor (Homo sapiens, UniProt P47871).
T2 construct: expressed in transfected cells; crude membranes
In words: [125I]-Glucagon binding (SPA), human Gcg receptor. Particulars: read-out: hGLcgR Ki, nM (SEM, n). In outline: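 Cell pellets were lysed in hypotonic Tris buffer, pH 7.5, homogenized, and spun at low then high speed to give crude membranes. Ki was derived from the fitted IC50.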

Experiment [5] deals with T3, gastric inhibitory peptide receptor (GIPR) (Homo sapiens, UniProt P48546).
T3 sequence (P48546 22-466): T1 sequence (P48546 22-466)
In words: cAMP pharmacological functional assay in presence of casein, hGIPR. It counts as cell-based. Particulars: HEK293 cells expressing hGIPR, 0.1% Casein, geometric mean; read-out: hGIPR cAMP Rel EC50 nM (SEM, n).

Numbered stars: 1 amine (or outer) side, 2 acyl side, 3 side chain; on linkers, the order of the positions; unused ones are H or OH. Square brackets hold non-standard residues; d marks the D form. Side chains are listed from the residue outwards. Peptide text beside a SMILES is read from it. * marks the point of attachment. C20 diacid = O=C(O)CCCCCCCCCCCCCCCCCCC(=O)*; C18 diacid = O=C(O)CCCCCCCCCCCCCCCCC(=O)*; αMePhe(2-F) = C[C@](N)(Cc1ccccc1F)C(=O)O; γGlu = O=C(O)[C@H](CCC(=O)[*:2])N[*:1]; αMeF = C[C@](N)(Cc1ccccc1)C(=O)O; αMeL = CC(C)C[C@](C)(N)C(=O)O; AEEA = NCCOCCOCC(=O)O; Aib = CC(C)(N)C(=O)O

human GLP-1R, sequence (P43220 24-463): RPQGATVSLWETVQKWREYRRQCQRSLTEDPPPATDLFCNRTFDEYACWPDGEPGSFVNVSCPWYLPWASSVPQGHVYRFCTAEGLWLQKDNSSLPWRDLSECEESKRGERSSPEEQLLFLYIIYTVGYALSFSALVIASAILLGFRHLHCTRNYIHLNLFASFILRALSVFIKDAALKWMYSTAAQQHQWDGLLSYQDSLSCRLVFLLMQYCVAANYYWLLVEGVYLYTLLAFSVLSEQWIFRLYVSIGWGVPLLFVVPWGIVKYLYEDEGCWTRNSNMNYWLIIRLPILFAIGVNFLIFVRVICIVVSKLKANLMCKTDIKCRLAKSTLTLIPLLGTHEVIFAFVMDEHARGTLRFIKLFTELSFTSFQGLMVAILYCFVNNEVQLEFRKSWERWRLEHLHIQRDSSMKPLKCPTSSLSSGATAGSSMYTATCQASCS
human GLP-1 receptor (GLP-1R), sequence (P43220 24-463): as above
T2 sequence (P47871 26-477): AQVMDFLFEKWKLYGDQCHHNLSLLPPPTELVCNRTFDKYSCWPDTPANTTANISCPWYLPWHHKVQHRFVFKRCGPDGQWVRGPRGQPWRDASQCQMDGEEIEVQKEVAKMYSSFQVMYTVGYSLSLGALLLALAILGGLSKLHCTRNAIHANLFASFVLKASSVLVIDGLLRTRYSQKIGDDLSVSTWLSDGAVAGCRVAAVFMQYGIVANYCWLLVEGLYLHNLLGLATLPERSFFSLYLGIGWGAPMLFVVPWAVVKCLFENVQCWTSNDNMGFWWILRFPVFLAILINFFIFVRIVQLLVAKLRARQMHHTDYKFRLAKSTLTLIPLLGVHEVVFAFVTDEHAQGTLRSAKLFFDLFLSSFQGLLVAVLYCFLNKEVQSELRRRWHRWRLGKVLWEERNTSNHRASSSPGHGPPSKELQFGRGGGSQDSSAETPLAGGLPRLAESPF

One may read the Ki as the equilibrium dissociation constant of an inhibitor or competing ligand from its target. Broadly, the EC50 is the concentration at which the effect is half-maximal. Take `CC[C@H](C)[C@H](NC(=O)[C@H](CC(C)C)NC(=O)[C@H](Cc1ccc(O)cc1)NC(=O)[C@@H](CCC(=O)O)NC(=O)[C@@H](NC(=O)[C@H](Cc1ccccc1)NC(=O)[C@H](CCC(=O)O)NC(=O)C(C)(C)NC(=O)[C@H](CCC(N)=O)NC(=O)[C@H](C)NC(=O)[C@H](CCCCNC(=O)COCCOCCNC(=O)COCCOCCNC(=O)CC[C@H](NC(=O)CCCCCCCCCCCCCCCCCCC(=O)O)C(=O)O)NC(=O)[C@H](CCCCN)NC(=O)[C@H](CC(=O)O)NC(=O)[C@H](CC(C)C)NC(=O)[C@](C)(CC(C)C)NC(=O)[C@@H](NC(=O)[C@H](CO)NC(=O)[C@H](Cc1ccc(O)cc1)NC(=O)[C@H](CC(=O)O)NC(=O)[C@H](CO)NC(=O)[C@@H](NC(=O)[C@](C)(Cc1ccccc1F)NC(=O)[C@@H](NC(=O)CNC(=O)[C@H](CCC(=O)O)NC(=O)C(C)(C)NC(=O)[C@@H](N)Cc1ccc(O)cc1)[C@@H](C)O)[C@@H](C)O)[C@@H](C)CC)[C@@H](C)CC)C(=O)N[C@@H](CCC(=O)O)C(=O)NCC(=O)NCC(=O)N1CCC[C@H]1C(=O)N[C@@H](CO)C(=O)N[C@@H](CO)C(=O)NCC(=O)N[C@@H](C)C(=O)N1CCC[C@H]1C(=O)N1CCC[C@H]1C(=O)N1CCC[C@H]1C(=O)N[C@@H](CO)C(N)=O` [Example 212] (H-Y[Aib]EGT[αMePhe(2-F)]TSDYSI[αMeL]LDKK([AEEA-AEEA-γGlu-C20 diacid])AQ[Aib]EFI[dE]YLIEGGPSSGAPPPS-NH2): the Ki was determined as 2.76 nM in experiment [1], 0.0978 nM in experiment [3] and 205 nM in experiment [4]. Further, the results for the EC50 in experiment [2] and in experiment [5] were 0.0572 nM and 0.0501 nM, respectively.

For `CC[C@H](C)[C@H](NC(=O)[C@H](CC(C)C)NC(=O)[C@H](Cc1ccc(O)cc1)NC(=O)[C@@H](CCC(=O)O)NC(=O)[C@@H](NC(=O)[C@H](Cc1ccccc1)NC(=O)[C@H](CCC(=O)O)NC(=O)C(C)(C)NC(=O)[C@H](CCC(N)=O)NC(=O)[C@H](C)NC(=O)[C@H](CCCCNC(=O)COCCOCCNC(=O)COCCOCCNC(=O)CC[C@H](NC(=O)CCCCCCCCCCCCCCCCCCC(=O)O)C(=O)O)NC(=O)[C@H](Cc1c[nH]cn1)NC(=O)[C@H](CC(=O)O)NC(=O)[C@H](CC(C)C)NC(=O)[C@](C)(CC(C)C)NC(=O)[C@@H](NC(=O)[C@H](CO)NC(=O)[C@H](Cc1ccc(O)cc1)NC(=O)[C@H](CC(=O)O)NC(=O)[C@H](CO)NC(=O)[C@@H](NC(=O)[C@](C)(Cc1ccccc1F)NC(=O)[C@@H](NC(=O)CNC(=O)[C@H](CCC(=O)O)NC(=O)C(C)(C)NC(=O)[C@@H](N)Cc1ccc(O)cc1)[C@@H](C)O)[C@@H](C)O)[C@@H](C)CC)[C@@H](C)CC)C(=O)N[C@@H](CCC(=O)O)C(=O)NCC(=O)NCC(=O)N1CCC[C@H]1C(=O)N[C@@H](CO)C(=O)N[C@@H](CO)C(=O)NCC(=O)N[C@@H](C)C(=O)N1CCC[C@H]1C(=O)N1CCC[C@H]1C(=O)N1CCC[C@H]1C(=O)N[C@@H](CO)C(N)=O` [Example 230] (H-Y[Aib]EGT[αMePhe(2-F)]TSDYSI[αMeL]LDHK([AEEA-AEEA-γGlu-C20 diacid])AQ[Aib]EFI[dE]YLIEGGPSSGAPPPS-NH2), the Ki is 4.68 nM in experiment [1], 0.042 nM in experiment [3] and 494 nM in experiment [4]. For the same molecule, the results for the concentration for a half-maximal effect (EC50) in experiment [2] and in experiment [5] were 0.0491 nM and 0.0431 nM, respectively.

Consider `CC[C@H](C)[C@H](NC(=O)[C@H](CC(C)C)NC(=O)[C@H](Cc1ccc(O)cc1)NC(=O)[C@H](CCC(=O)O)NC(=O)[C@@H](NC(=O)[C@H](Cc1ccccc1)NC(=O)[C@H](C)NC(=O)C(C)(C)NC(=O)[C@H](CCC(N)=O)NC(=O)[C@H](C)NC(=O)[C@H](CCCCNC(=O)COCCOCCNC(=O)COCCOCCNC(=O)CC[C@H](NC(=O)CCCCCCCCCCCCCCCCCCC(=O)O)C(=O)O)NC(=O)C(C)(C)NC(=O)[C@H](CC(=O)O)NC(=O)[C@H](CC(C)C)NC(=O)[C@](C)(CC(C)C)NC(=O)[C@@H](NC(=O)[C@H](CO)NC(=O)[C@H](Cc1ccc(O)cc1)NC(=O)[C@H](CC(=O)O)NC(=O)[C@H](CO)NC(=O)[C@@H](NC(=O)[C@H](Cc1ccccc1)NC(=O)[C@@H](NC(=O)CNC(=O)[C@H](CCC(=O)O)NC(=O)C(C)(C)NC(=O)[C@@H](N)Cc1ccc(O)cc1)[C@@H](C)O)[C@@H](C)O)[C@@H](C)CC)[C@@H](C)CC)C(=O)N[C@@H](CCC(=O)O)C(=O)NCC(=O)NCC(=O)N1CCC[C@H]1C(=O)N[C@@H](CO)C(=O)N[C@@H](CO)C(=O)NCC(=O)N[C@@H](C)C(=O)N1CCC[C@H]1C(=O)N1CCC[C@H]1C(=O)N1CCC[C@H]1C(=O)N[C@@H](CO)C(N)=O` [Example 60] (H-Y[Aib]EGTFTSDYSI[αMeL]LD[Aib]K([AEEA-AEEA-γGlu-C20 diacid])AQ[Aib]AFIEYLIEGGPSSGAPPPS-NH2), for which the Ki in experiment [1] was 9.55 nM; in experiment [3], 0.0655 nM; in experiment [4] it was 237 nM. Also, the EC50 amounted to 0.287 nM in experiment [2] and 0.135 nM in experiment [5].

With `CC[C@H](C)[C@H](NC(=O)[C@H](CC(C)C)NC(=O)[C@H](Cc1ccc(O)cc1)NC(=O)[C@H](CCC(=O)O)NC(=O)[C@@H](NC(=O)[C@H](Cc1ccccc1)NC(=O)[C@H](CCC(=O)O)NC(=O)C(C)(C)NC(=O)[C@H](CCC(N)=O)NC(=O)[C@H](C)NC(=O)[C@H](CCCCNC(=O)COCCOCCNC(=O)COCCOCCNC(=O)CC[C@H](NC(=O)CCCCCCCCCCCCCCCCCCC(=O)O)C(=O)O)NC(=O)[C@H](CCC(=O)O)NC(=O)[C@H](CC(=O)O)NC(=O)[C@H](CC(C)C)NC(=O)[C@](C)(CC(C)C)NC(=O)[C@@H](NC(=O)[C@H](CO)NC(=O)[C@H](Cc1ccc(O)cc1)NC(=O)[C@H](CC(=O)O)NC(=O)[C@H](CO)NC(=O)[C@@H](NC(=O)[C@](C)(Cc1ccccc1F)NC(=O)[C@@H](NC(=O)CNC(=O)[C@H](CCC(=O)O)NC(=O)C(C)(C)NC(=O)[C@@H](N)Cc1ccc(O)cc1)[C@@H](C)O)[C@@H](C)O)[C@@H](C)CC)[C@@H](C)CC)C(=O)N[C@@H](CCC(=O)O)C(=O)NCC(=O)NCC(=O)N1CCC[C@H]1C(=O)N[C@@H](CO)C(=O)N[C@@H](CO)C(=O)NCC(=O)N[C@@H](C)C(=O)N1CCC[C@H]1C(=O)N1CCC[C@H]1C(=O)N1CCC[C@H]1C(=O)N[C@@H](CO)C(N)=O` [Example 118] (H-Y[Aib]EGT[αMePhe(2-F)]TSDYSI[αMeL]LDEK([AEEA-AEEA-γGlu-C20 diacid])AQ[Aib]EFIEYLIEGGPSSGAPPPS-NH2), the figures for the Ki in experiment [1], in experiment [3] and in experiment [4] were 6.1 nM, 0.0859 nM and 53 nM, respectively. In addition, the values for the EC50 in experiment [2] and in experiment [5] were 0.0588 nM and 0.0538 nM, respectively.

As for `CC[C@H](C)[C@H](NC(=O)[C@H](CC(C)C)NC(=O)[C@H](Cc1ccc(O)cc1)NC(=O)[C@H](CCC(=O)O)NC(=O)[C@@H](NC(=O)[C@H](Cc1ccccc1)NC(=O)[C@H](CCC(=O)O)NC(=O)C(C)(C)NC(=O)[C@H](CCC(N)=O)NC(=O)[C@H](C)NC(=O)[C@H](CCCCNC(=O)COCCOCCNC(=O)COCCOCCNC(=O)CC[C@H](NC(=O)CCCCCCCCCCCCCCCCC(=O)O)C(=O)O)NC(=O)[C@H](CCCCN)NC(=O)[C@H](CC(=O)O)NC(=O)[C@H](CC(C)C)NC(=O)[C@H](CC(C)C)NC(=O)[C@@H](NC(=O)[C@H](CO)NC(=O)[C@H](Cc1ccc(O)cc1)NC(=O)[C@H](CC(=O)O)NC(=O)[C@H](CO)NC(=O)[C@@H](NC(=O)[C@](C)(Cc1ccccc1)NC(=O)[C@@H](NC(=O)CNC(=O)[C@H](CCC(=O)O)NC(=O)C(C)(C)NC(=O)[C@@H](N)Cc1ccc(O)cc1)[C@@H](C)O)[C@@H](C)O)[C@@H](C)CC)[C@@H](C)CC)C(=O)N[C@@H](CCC(=O)O)C(=O)NCC(=O)NCC(=O)N1CCC[C@H]1C(=O)N[C@@H](CO)C(=O)N[C@@H](CO)C(=O)NCC(N)=O` [Example 308] (H-Y[Aib]EGT[αMeF]TSDYSILLDKK([AEEA-AEEA-γGlu-C18 diacid])AQ[Aib]EFIEYLIEGGPSSG-NH2), the values for the inhibitory constant (Ki) in experiment [1], in experiment [3] and in experiment [4] were 1.01 nM, 0.0288 nM and 94.2 nM, respectively. In addition, the concentration for a half-maximal effect (EC50) in experiment [2] was 0.0392 nM; in experiment [5], 0.0262 nM.
